Assay results from patent publication US7456203B2, “Muscarinic receptor antagonists” (Theravance, Inc., priority 1999, dated 2008).

Tests used:
[1] = target: T1, M2 receptor in bladder (Rattus norvegicus, UniProt P10980); experiment: Rat bladder in vitro binding assay, receptor block by selective ligand; settings: blocking ligand 2 μM; bladder membranes
T1 construct: Membranes from rat bladder were prepared; from tissue; host or cells: rat bladder membranes
T1 sequence (P10980 1-466): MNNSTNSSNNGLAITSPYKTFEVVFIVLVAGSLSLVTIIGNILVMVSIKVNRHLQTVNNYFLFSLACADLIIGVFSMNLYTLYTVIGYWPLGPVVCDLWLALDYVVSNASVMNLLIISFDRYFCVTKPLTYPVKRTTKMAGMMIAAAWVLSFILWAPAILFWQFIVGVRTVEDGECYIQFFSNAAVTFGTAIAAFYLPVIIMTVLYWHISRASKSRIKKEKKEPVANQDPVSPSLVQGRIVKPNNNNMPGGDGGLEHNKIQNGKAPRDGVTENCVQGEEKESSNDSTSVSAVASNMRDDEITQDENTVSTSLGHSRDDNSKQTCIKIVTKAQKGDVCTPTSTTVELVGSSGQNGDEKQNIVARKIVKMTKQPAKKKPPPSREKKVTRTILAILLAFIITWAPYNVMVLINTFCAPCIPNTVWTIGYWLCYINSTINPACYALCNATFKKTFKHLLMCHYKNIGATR
Experimental: (§1) Bladder was comprised of both M2 and M3 muscannic receptors. The ratio was typically 4:1 M2:M3. […] The following example illustrates the procedure for M3 bladder binding.
(§2) Membranes from rat bladder were prepared in a similar fashion to that used to isolate heart membrane above. […] To 50 μl of compound dilution in a 96-well assay plate was added an appropriate amount of rat heart membrane (usually 25 μl of membrane prep in 75 μl of 20 mM HEPES, 100 mM NaCl/10 mM MgCl2 at pH 7.5). The amount of membrane added depended in general on the results of signal optimization, and ranged from 12.5-25. Last, 50 μl of 2.12 nM 3H-N-methylscopolamine radioligand in compound dilution buffer was added. The total volume in each well was 200 μl. The final concentration of methoctramine was 2 μM. The filter plate was pre-blocked using 0.3% PEI for at least 15 mins., and then washed twice with 200 μl PBS. The assay plate was incubated for 1 hour at room temperature with gentle shaking. The contents of the assay plate was then transferred to the filter plate, and washed three times using 200 μl PBS. About 40 μl of scint was added to each well, the plate was allowed to sit at room temperature for 18 h, and then counted using a Packard Topcount NXT.

[2] = target: T2, M3 receptor in bladder (Rattus norvegicus, UniProt P08483); experiment: as above; settings: bladder membranes
T2 construct: Membranes from rat bladder were prepared; from tissue; host or cells: rat bladder membranes
T2 sequence (P08483 whole entry): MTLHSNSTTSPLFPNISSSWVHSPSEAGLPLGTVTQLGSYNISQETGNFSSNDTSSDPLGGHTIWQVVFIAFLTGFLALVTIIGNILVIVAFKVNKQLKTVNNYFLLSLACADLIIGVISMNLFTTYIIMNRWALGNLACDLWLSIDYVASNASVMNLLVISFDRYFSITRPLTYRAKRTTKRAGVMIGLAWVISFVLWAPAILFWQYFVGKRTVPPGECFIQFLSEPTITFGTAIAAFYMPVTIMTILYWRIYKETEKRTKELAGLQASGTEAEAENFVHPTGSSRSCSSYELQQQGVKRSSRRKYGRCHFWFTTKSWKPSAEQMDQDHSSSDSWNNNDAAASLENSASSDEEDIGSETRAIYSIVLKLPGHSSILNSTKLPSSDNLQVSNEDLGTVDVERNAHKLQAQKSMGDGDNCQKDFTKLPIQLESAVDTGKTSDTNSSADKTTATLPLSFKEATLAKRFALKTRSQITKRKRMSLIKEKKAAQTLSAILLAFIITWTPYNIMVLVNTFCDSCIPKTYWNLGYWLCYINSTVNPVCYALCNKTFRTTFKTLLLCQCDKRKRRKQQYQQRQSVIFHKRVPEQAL
Experimental: as §1
as §2, with “The final concentration of methoctramine was 2 μM.” left out

[3] = system: oxotremorine response (intraluminal pressure of the bladder); experiment: In vivo bladder assay; set-up: species or system rat; settings: 0.005-0.01 mg/kg, IV; after oxotremorine 0.3 mg/kg SC; anesthetized male Sprague-Dawley rats
Experimental: Male Sprague-Dawley rats weighing 250-300 g were anesthetized with urethane (1.3 g/kg, i.p.), inactin (25 mg/kg, i.p.), and xylazine (4 mg, i.p.). The jugular (or femoral) vein was isolated and ligated and a small incision was made in the vein distal to the ligation. […]
For data analysis, the oxotremorine response (zero inhibition) was determined by measuring the mean pressure 1 minute prior to the antagonist injection. Then, to assess antagonist inhibition, mean pressure was measured beginning at 1 minute and ending 2 minutes after antagonist administration. […] The percent inhibition by the antagonist can be determined by the ratio of the decrease from the zero to 100% values. • The formula is: oxotremorine mean−treatment mean*100 oxotremorine mean−atropine mean.

block of M3 receptor ([2]; 2 μM Darifenacin) | Compound | block of the M2 receptor in bladder [1] [%] | decrease in intraluminal pressure [3] | block of the M3 receptor in bladder ([2]; final concentration of methoctramine 2 μM)
minimal | NC(=O)C(c1ccccc1)(c1ccccc1)[C@@H]1CCN(CCc2ccc3c(c2)CCO3)C1 [Darifenacin] | > 99 | – | –
– | CN1[C@@H]2CC[C@H]1C[C@@H](OC(=O)C(CO)c1ccccc1)C2 (some centres unmarked) [atropine] | – | 30-70% | –
– | COc1ccccc1CNCCCCCCNCCCCCCCCNCCCCCCNCc1ccccc1OC [methoctramine, Methoctramine] | > 99 | – | less than 40%
